Data from ChEMBL document CHEMBL5046249, “Synthesis, biological evaluation and cellular localization study of fluorescent derivatives of Jiyuan Oridonin A” (Eur J Med Chem, 2022).
The source made the active and inactive calls. No cut-off for these calls is given here.

How the values were obtained:
MGC-803 = assay: Antiproliferative activity against human MGC-803 cells assessed as inhibition of cell growth measured after 72 hrs by SRB assay; type: functional, cell-based; details: MGC-803, 72 h
HGC-27 [1] = assay: Induction of apoptosis in human HGC-27 cells assessed as nuclear cohesion at 0.5 to 2 uM by Hoechst 33342 staining based fluorescence assay; type: functional, cell-based; details: dose 0.5-2 µM
SW1990 = assay: Antiproliferative activity against human SW1990 cells assessed as inhibition of cell growth measured after 72 hrs by SRB assay; type: functional, cell-based; details: SW1990, 72 h
HGC-27 [2] = assay: Induction of apoptosis in human HGC-27 cells assessed as increase in cleaved caspase-3 expression upto 2 uM measured after 24 hrs by Western blot analysis; type: functional, cell-based; details: dose microM <=2, time 24.0 hrs
TE-1 = assay: Antiproliferative activity against human TE-1 cells assessed as inhibition of cell growth measured after 72 hrs by SRB assay; type: functional, cell-based; details: TE-1, 72 h
HGC-27 [3] = assay: Antiproliferative activity against human HGC-27 cells assessed as inhibition of cell growth measured after 72 hrs by SRB assay; type: functional, cell-based; details: HGC-27, 72 h
HGC-27 [4] = assay: Induction of apoptosis in human HGC-27 cells assessed as nuclear rupture at 0.5 to 2 uM by Hoechst 33342 staining based fluorescence assay; type: functional, cell-based; details: dose 0.5-2 µM
HGC-27 [5] = assay: Induction of apoptosis in human HGC-27 cells assessed as increase in Bax expression upto 2 uM measured after 24 hrs by Western blot analysis; type: functional, cell-based; details: dose microM <=2, time 24.0 hrs
[6] = Drug localization in mitochondria of human HGC-27 cells at 2 uM incubated for 1 hr by Mitotracker red dye based confocal laser microscopy analysis; type: ADME; details: hgc-27, 1 h
HGC-27 [7] = assay: Induction of apoptosis in human HGC-27 cells assessed as increase in cytochrome-c expression upto 2 uM measured after 24 hrs by Western blot analysis; type: functional, cell-based; details: dose microM <=2, time 24.0 hrs
[8] = Drug uptake in human HGC-27 cells assessed as increase in fluorescence intensity of green signal at 8 uM measured after 1 hr by fluorescence microscopic analysis; type: ADME, cell-based; details: hgc-27, 1 h
HGC-27 [9] = assay: Antimigratory activity against human HGC-27 cells assessed as inhibition of cell migration measured after 24 hrs by cell scratch assay; type: functional, cell-based; details: dose microM <=2, time 24.0 hrs
HGC-27 [10] = assay: Induction of apoptosis in human HGC-27 cells assessed as decrease in Bcl-2 expression upto 2 uM measured after 24 hrs by Western blot analysis; type: functional, cell-based; details: dose microM <=2, time 24.0 hrs
HGC-27 [11] = assay: Induction of apoptosis in human HGC-27 cells assessed as increase in cleaved caspase-9 expression upto 2 uM measured after 24 hrs by Western blot analysis; type: functional, cell-based; details: dose microM <=2, time 24.0 hrs
[12] = Drug localization in nucleus of human HGC-27 cells at 2 uM incubated for 1 hr by DAPI staining based confocal laser microscopic analysis; type: ADME, cell-based; details: hgc-27, 1 h
HGC-27 [13] = assay: Inhibition of colony formation in human HGC-27 cells measured for 24 hrs by crystal violet staining based assay; type: functional, cell-based; details: dose microM <=2, time 24.0 hrs
HGC-27 [14] = assay: Induction of mitochondrial membrane potential loss in human HGC-27 cells assessed as decrease in red fluorescence intensity upto 2 uM incubated for 24 hrs by TMRM dye based flow cytometric analysis; type: functional, cell-based; details: dose microM <=2, time 24.0 hrs
[15] = Drug uptake in human HGC-27 cells assessed as increase in fluorescence intensity by fluorescence microscopic analysis; type: ADME, cell-based; details: dose 2-8 µM, time <=60 min
HGC-27 [16] = assay: Induction of apoptosis in human HGC-27 cells assessed as enhance brightness of fluorescence at 0.5 to 2 uM by Hoechst 33342 staining based fluorescence assay; type: functional, cell-based; details: dose 0.5-2 µM
HGC-27 [17] = assay: Induction of apoptosis in human HGC-27 cells assessed as increase in total apoptotic cells by Hoechst 33342 staining based fluorescence assay; type: functional, cell-based; details: dose 0.5-2 µM
[18] = Cytotoxicity against human GES1 cells assessed as inhibition of cell growth measured after 72 hrs by SRB assay; type: toxicity, cell-based
PC-3 = assay: Antiproliferative activity against human PC-3 cells assessed as inhibition of cell growth measured after 72 hrs by SRB assay; type: functional, cell-based; details: PC-3, 72 h

IC50 (MGC-803): 640 nM
IC50 (SW1990): 860 nM
Drug uptake [6]: Active
Drug uptake [8]: Active
Drug uptake [12]: Not Active
Drug uptake [15]: Dose-Dependent Effect and Tde
IC50 (PC-3): 680 nM
SMILES: C=C1C(=O)[C@]23[C@H](O)[C@H]1C[C@H](O)[C@H]2[C@]12CCCC(C)(C)[C@H]1C[C@H]3O[C@H]2OCCCCCc1cn(CCOCCOCCOCCN2C(=O)c3cccc4c(N5CCCCC5)ccc(c34)C2=O)nn1
Activity (HGC-27 [1]): Active
Activity (HGC-27 [2]): Active
IC50 (TE-1): 730 nM
IC50 (HGC-27 [3]): 390 nM
Activity (HGC-27 [4]): Active
Activity (HGC-27 [5]): Active
Activity (HGC-27 [7]): Active
Activity (HGC-27 [9]): Dose-Dependent Effect
Activity (HGC-27 [10]): Active
Activity (HGC-27 [11]): Active
Activity (HGC-27 [13]): Dose-Dependent Effect
Activity (HGC-27 [14]): Active
Activity (HGC-27 [16]): Active
Activity (HGC-27 [17]): Active
IC50 at 72 h [18]: 18100 nM
